As usually defined, the pIC50 is the IC50 on a negative log10 scale, so that one unit is a factor of ten.

For seven compounds, IC50 results are on record in ChEMBL document CHEMBL1955753, “SAR-study on a new class of imidazo[1,2-a]pyridine-based inhibitors of 5-lipoxygenase” (Bioorg Med Chem Lett, 2012).

pIC50: −log10 of the molar value.

In assay [1] the target is T1, Polyunsaturated fatty acid 5-lipoxygenase (Homo sapiens, UniProt P09917).
T1 sequence (P09917 whole entry): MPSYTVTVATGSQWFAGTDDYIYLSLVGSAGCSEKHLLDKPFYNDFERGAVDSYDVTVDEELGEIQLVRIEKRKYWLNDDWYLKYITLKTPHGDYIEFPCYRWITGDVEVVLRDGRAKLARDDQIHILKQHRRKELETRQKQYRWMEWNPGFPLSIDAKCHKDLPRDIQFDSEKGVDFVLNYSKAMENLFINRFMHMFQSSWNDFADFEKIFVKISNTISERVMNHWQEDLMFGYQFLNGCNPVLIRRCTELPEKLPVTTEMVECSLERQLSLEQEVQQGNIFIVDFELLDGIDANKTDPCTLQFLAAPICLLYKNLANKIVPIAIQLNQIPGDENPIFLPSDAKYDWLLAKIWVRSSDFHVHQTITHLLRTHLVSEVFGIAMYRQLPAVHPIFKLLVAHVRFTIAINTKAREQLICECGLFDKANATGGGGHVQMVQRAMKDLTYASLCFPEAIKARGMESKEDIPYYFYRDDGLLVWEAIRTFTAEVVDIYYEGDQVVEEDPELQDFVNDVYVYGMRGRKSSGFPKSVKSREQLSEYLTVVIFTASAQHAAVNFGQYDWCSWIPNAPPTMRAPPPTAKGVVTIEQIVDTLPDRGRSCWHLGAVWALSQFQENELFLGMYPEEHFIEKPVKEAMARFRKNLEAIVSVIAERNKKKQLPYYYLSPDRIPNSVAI
In words: Inhibition of 5-lipoxygenase in human polymorphonuclear leukocytes assessed as reduction in A23187 and AA-stimulated 5-LO product formation preincubated for 15 mins prior stimulation measured after 10 mins by HPLC analysis. In kind it is cell-based.

Assay [2] deals with T1, Polyunsaturated fatty acid 5-lipoxygenase. The assay is described as follows: Inhibition of 5-lipoxygenase in S100 cell free fraction of human polymorphonuclear leukocytes assessed as reduction in 5-LO product formation preincubated for 15 mins measured after 10 mins by HPLC analysis. In kind it is cell-based.

For the compound `Cc1ccc2nc(-c3ccncc3)c(NC3CCCCC3)n2c1`, the negative-log IC50 (pIC50) in assay [1] is 5.14; in assay [2], 5.11.
For the compound `Cc1ccc(-c2nc3cc(C)ccn3c2NC2CCCC2)cc1`, the negative logarithm of the IC50 (pIC50) in assay [1] is 6.05.
Regarding `Cc1ccc2nc(-c3ccc([N+](=O)[O-])cc3)c(NC3CCCCC3)n2c1`, the negative-log IC50 (pIC50) in assay [1] was 5.82; in assay [2] it was under 4.52.
For the compound `Cc1ccc2nc(-c3ccc(N(C)C)cc3)c(NC3CCCCC3)n2c1`, in assay [1], the pIC50 was 6.22.
Regarding `CCOc1ccc2[nH]c(=O)c(-c3nc4ccc(C)cn4c3NC3CCCCC3)cc2c1`, the values for the negative logarithm of the IC50 (pIC50) in assay [1] and in assay [2] were 5.74 and 4.67, respectively.
For `Clc1ccc2nc(-c3ccc(N4CCOCC4)cc3)n(CC3CCCCC3)c2c1`, in that order: 5.92 and 5.24.
With `CN(C)c1ccc(-c2nc3ccc(Cl)cc3n2CC2CCCCC2)cc1`, the pIC50 in assay [1] was 6.30; in assay [2], under 5.00.
